Test results from ChEMBL document CHEMBL1142268, “Histone deacetylase inhibitors: from bench to clinic” (J Med Chem, 2008).

Target: Histone deacetylase
Test: Inhibition of HDAC from human K562 cells
Format: cell-based
Settings: not given

| SMILES | IC50 [nM] |
| --- | --- |
| O=C(CCCCCCc1nc(-c2ccc(-c3ccccc3)cc2)cs1)NO | 11 |
| O=C(CCCCCCc1nc(-c2cccc(Br)c2)cs1)NO | 5.8 |
| CC(C)[C@H]1NC(=O)[C@@H](C)[C@@H](C/C=C\CCC(N)=O)NC(=O)[C@@H](Cc2ccccc2)NC(=O)[C@@H](C)NC1=O [AZUMAMIDE A] | 45 |
| C[C@@H]1C(=O)N[C@H](C)C(=O)N[C@H](C)C(=O)N[C@H](Cc2ccccc2)C(=O)N[C@@H]1C/C=C\CCC(N)=O [AZUMAMIDE D] | 1300 |
| O=C(CCCCCCc1cnc(-c2ccc(F)cc2)o1)NO | 23 |
| C1=C\CCCCCC[n+]2cccc(c2)CCCCCCCCCCCC[n+]2cccc(c2)CCCCCC/1 | 27000 |
| O=C(O)C(=O)CCCCCCOc1ccc(-c2ccccc2)cc1 | 3700 |
| NC(=O)C(=O)CCCCCCOc1ccc(-c2ccccc2)cc1 | > 50000 |
| COC(=O)C(=O)CCCCCCCOc1ccc(-c2ccccc2)cc1 | 109 |
| COC(=O)C(=O)CCCCCCOc1ccc(-c2ccccc2)cc1 | 62 |
| COC(=O)C(=O)CCCCCOc1ccc(-c2ccccc2)cc1 | 82 |
| CN(C)CCNC(=O)C(=O)CCCCCCOc1ccc(-c2ccccc2)cc1 | > 50000 |
| CCNC(=O)C(=O)CCCCCCOc1ccc(-c2ccccc2)cc1 | 4900 |
| O=C(O)CNC(=O)C(=O)CCCCCCOc1ccc(-c2ccccc2)cc1 | > 50000 |
| CN(C)C(=O)C(=O)CCCCCCOc1ccc(-c2ccccc2)cc1 | > 5000 |
| O=C(CCCCCCc1cnc(-c2ccccc2)o1)NO | 13 |
| O=C(CCCCCCc1nc(-c2ccc(OC(F)(F)F)cc2)cs1)NO | 74 |

Tested on: HT-1080
Test: Inhibition of human HT1080 cells
Format: functional, cell-based
Settings: not given

| SMILES | IC50 [nM] |
| --- | --- |
| O=C(CCCCCCc1nc(-c2ccc(-c3ccccc3)cc2)cs1)NO | 1320 |
| O=C(CCCCCCc1nc(-c2cccc(Br)c2)cs1)NO | 10100 |

Target: Histone deacetylase
Test: Inhibition of HDAC from human HeLa cells
Format: cell-based
Settings: not given

| SMILES | IC50 [nM] |
| --- | --- |
| O=C(NO)c1ccc(-c2cccnc2)s1 | 1130 |
| CSCCCCCCC(=O)Nc1ccccc1 | > 100000 |
| O=C(NO)c1ccc(-c2ccncc2)s1 | 1260 |
| O=C(NO)c1ccc(-c2ccccn2)s1 | 243 |

Same assay, conditions: read-out: IC50

| SMILES | IC50 [nM] |
| --- | --- |
| O=C(CCCCCNC(=O)Nc1cccc(-c2nc3cc(C(F)(F)F)ccc3o2)c1)NO | 19 |
| CN(c1ccccc1)S(=O)(=O)c1cccc(/C=C/C(=O)NO)c1 | 476 |
| O=C(/C=C/c1cccc(S(=O)(=O)Nc2ccc(-c3ccccc3)cc2)c1)NO | 54 |
| O=C(/C=C/c1cccc(NS(=O)(=O)c2ccccc2)c1)NO | 188 |
| O=C(/C=C/c1ccc(S(=O)(=O)Nc2ccccc2)cc1)NO | 29 |
| O=C(CCCCCNC(=O)Nc1cccc(-c2nc3ccc(F)cc3o2)c1)NO | 9 |
| COc1ccc(S(=O)(=O)Nc2cccc(/C=C/C(=O)NO)c2)cc1OC | 137 |
| O=C(/C=C/c1cccc(S(=O)(=O)NCc2ccccc2)c1)NO | 34 |
| O=C(/C=C/c1ccc(NS(=O)(=O)c2ccc(-c3ccccc3)cc2)cc1)NO | 30 |
| Cc1ccc(S(=O)(=O)Nc2cccc(/C=C/C(=O)NO)c2)cc1 | 123 |
| COc1ccc(-c2nc3cc(F)ccc3o2)cc1NC(=O)NCCCCCC(=O)NO | 15 |
| COc1ccc(-c2nc3cc(Cl)cc(Cl)c3o2)cc1NC(=O)NCCCCCC(=O)NO | 128 |
| O=C(/C=C/c1cccc(NS(=O)(=O)c2ccc(-c3ccccc3)cc2)c1)NO | 106 |
| O=C(CCCCCNC(=O)Nc1cccc(-c2nc3ccccc3o2)c1)NO | 8 |
| COc1ccc(-c2nc3ccc(F)cc3o2)cc1NC(=O)NCCCCCC(=O)NO | 18 |
| Cc1ccc(NS(=O)(=O)c2cccc(/C=C/C(=O)NO)c2)cc1 | 18 |
| O=C(CCCCS)Nc1ccccc1 | 6200 |
| CC(=O)SCCCCCCC(=O)Nc1ccccc1 | 7100 |
| COc1ccc(NS(=O)(=O)c2cccc(/C=C/C(=O)NO)c2)cc1OC | 23 |
| O=C(/C=C/c1ccc(S(=O)(=O)Nc2ccc(-c3ccccc3)cc2)cc1)NO | 66 |
| COc1ccc2oc(-c3cccc(NC(=O)NCCCCCC(=O)NO)c3)nc2c1 | 12 |
| O=C(CCCCCNC(=O)Nc1cccc(-c2nc3cc(F)ccc3o2)c1)NO | 8 |
| COc1ccc(-c2nc3cc(-c4ccccc4)ccc3o2)cc1NC(=O)NCCCCCC(=O)NO | 400 |
| COc1ccc(-c2nc3ccccc3o2)cc1NC(=O)NCCCCCC(=O)NO | 12 |
| COc1ccc(-c2nc3cc(Cl)ccc3o2)cc1NC(=O)NCCCCCC(=O)NO | 146 |

Tested on: HCT-116
Test: Inhibition of human HCT116 cells
Format: functional, cell-based
Settings: not given

| SMILES | IC50 [nM] |
| --- | --- |
| COc1cc(CNc2ccc(/C=C/C(=O)Nc3ccccc3N)cn2)cc(OC)c1OC | 2000 |
| Nc1ccccc1NC(=O)c1ccc(/C=C/C(=O)NCc2cccnc2)cc1 | 70 |
| Nc1ccccc1NC(=O)CCCCCCNC(=O)c1cccc(-c2ccccc2)c1 | 12000 |
| COc1cc(NCc2ccc(/C=C/C(=O)Nc3ccccc3N)cn2)cc(OC)c1OC | 3000 |
| Nc1ccccc1NC(=O)c1ccc(/C=C/C(=O)NCCc2c[nH]c3ccccc23)cc1 | 300 |
| COc1ccc(CCNc2ccc(C(=O)Nc3ccccc3N)cn2)cc1 | 800 |
| COc1ccc(NCc2ccc(/C=C/C(=O)Nc3ccccc3N)cc2)cc1 | 12000 |
| Nc1ccccc1NC(=O)c1ccc(/C=C/CNc2nccc(-c3cccnc3)n2)cc1 | 200 |
| Nc1ccccc1NC(=O)c1ccc(CSc2nc3ccccc3[nH]2)cc1 | 320 |
| Nc1ccccc1NC(=O)CCCCCCNC(=O)c1ccc(-c2ccccc2)cc1 | 7000 |
| COc1cc(NC/C=C/c2ccc(C(=O)Nc3ccccc3N)cc2)cc(OC)c1OC | 100 |
| Nc1ccccc1NC(=O)/C=C/c1ccc(NCc2ccccc2)nc1 | 1000 |
| COc1ccc(CNc2ccc(/C=C/C(=O)Nc3ccccc3N)cc2)cc1 | 37000 |
| COc1ccc(CNc2ccc(/C=C/C(=O)Nc3ccccc3N)cn2)cc1 | 3000 |
| COc1ccc(CNc2ccc(C(=O)Nc3ccccc3N)cn2)cc1 | 500 |
| COc1ccc(CNc2ccc(C(=O)Nc3ccccc3N)cc2)cc1OC | 600 |

Tested on: MKN-45
Test: Antiproliferative activity against human MKN45 cells
Format: functional, cell-based
Settings: not given

| SMILES | IC50 [nM] |
| --- | --- |
| O=C(NO)c1ccc(-c2ccn(CCNCc3ccc(-n4ccnc4)cc3)n2)s1 | 560 |
| O=C(NO)c1ccc(-c2ccn(CCNCc3ccc4[nH]ccc4c3)n2)s1 | 280 |
| COc1ccc(CNCCn2ccc(-c3ccc(C(=O)NO)s3)n2)cc1 | 550 |
| O=C(NO)c1ccc(-c2ccn(Cc3ccccc3)n2)s1 | 4540 |
| O=C(Cn1ccc(-c2ccc(C(=O)NO)s2)n1)Nc1cccc2cccnc12 | 200 |
| O=C(NO)c1ccc(-c2ccn(CCc3ccccc3)n2)s1 | 2910 |
| O=C(NO)c1ccc(-c2ccn(CCOc3ccccc3)n2)s1 | 1500 |
| O=C(NO)c1ccc(-c2ccn(CCNCc3ccc(-c4ccccn4)cc3)n2)s1 | 120 |
| COc1ccc(CNCCn2ccc(-c3ccc(C(=O)NO)s3)n2)cc1OC | 4500 |
| O=C(Cn1ccc(-c2ccc(C(=O)NO)s2)n1)Nc1ccccc1 | 840 |
| COc1ccccc1NC(=O)Cn1ccc(-c2ccc(C(=O)NO)s2)n1 | 230 |
| Cn1nc(C(F)(F)F)cc1-c1ccc(C(=O)NO)s1 | 31500 |
| O=C(NO)c1ccc(-c2ccn(CCOCc3ccccc3)n2)s1 | 750 |
| O=C(NO)c1ccc(-c2ccn(CCCc3ccccc3)n2)s1 | 2190 |
| Cn1c(CNCCn2ccc(-c3ccc(C(=O)NO)s3)n2)cc2ccccc21 | 370 |
| O=C(NO)c1ccc(-c2ccn(CCNCc3ccccc3)n2)s1 | 1800 |
